Experiments:
PPARγ-RXRα heterodimer = molecular target: T1, PPARγ-RXRα heterodimer (Homo sapiens, UniProt P37231); assay: PPARγ-RXRα heterodimer ligand activity (luciferase reporter, PPARγ:RXRα:4ERPP/CHO-K1 cells); type: cell-based; settings: 48 hours, concentration for 50% of the maximum fold induction
T1 construct: expressed in transfected cells; host or cells: CHO-K1
T1 sequence (P37231 1-477 isoform P37231-2): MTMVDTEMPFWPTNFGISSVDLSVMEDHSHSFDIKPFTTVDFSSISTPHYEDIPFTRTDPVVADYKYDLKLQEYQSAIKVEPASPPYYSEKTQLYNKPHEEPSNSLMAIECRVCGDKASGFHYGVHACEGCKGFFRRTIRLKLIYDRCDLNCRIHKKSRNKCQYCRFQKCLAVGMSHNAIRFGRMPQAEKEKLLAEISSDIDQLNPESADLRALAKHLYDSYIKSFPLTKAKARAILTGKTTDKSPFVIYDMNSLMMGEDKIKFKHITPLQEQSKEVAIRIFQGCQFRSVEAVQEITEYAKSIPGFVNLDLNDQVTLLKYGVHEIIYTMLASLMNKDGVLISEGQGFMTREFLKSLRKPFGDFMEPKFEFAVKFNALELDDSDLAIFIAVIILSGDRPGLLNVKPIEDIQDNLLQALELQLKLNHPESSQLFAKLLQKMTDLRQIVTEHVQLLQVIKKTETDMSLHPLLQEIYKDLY
T1 sequence (P19793 1-462 partner): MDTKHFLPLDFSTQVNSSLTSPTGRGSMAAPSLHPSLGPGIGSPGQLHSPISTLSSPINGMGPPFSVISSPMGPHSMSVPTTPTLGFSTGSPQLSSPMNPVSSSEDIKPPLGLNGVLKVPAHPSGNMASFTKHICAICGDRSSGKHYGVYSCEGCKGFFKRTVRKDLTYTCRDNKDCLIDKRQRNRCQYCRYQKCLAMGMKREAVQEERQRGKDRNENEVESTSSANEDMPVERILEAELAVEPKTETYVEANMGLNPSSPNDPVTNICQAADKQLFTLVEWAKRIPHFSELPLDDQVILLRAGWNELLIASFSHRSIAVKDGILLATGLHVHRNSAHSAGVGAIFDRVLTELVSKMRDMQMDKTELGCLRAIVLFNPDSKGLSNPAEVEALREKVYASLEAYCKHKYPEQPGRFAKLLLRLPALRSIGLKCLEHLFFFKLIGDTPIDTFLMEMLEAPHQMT
Method: (PPARγ-RXRα Heterodimer Ligand Activity)
A PPARγ:RXRα:4ERPP/CHO-K1 cells obtained in Reference Example 5 described later were cultured in HAM F12 medium (produced by NISSUI SEIYAKU) containing 10% Fetal bovine serum (produced by Life Technologies, Inc., USA) and then inoculated to a 96-well white plate (produced by Corning Costar Corporation, USA) at the density of 2×10^4 cells/well, and cultured in a CO2 gas incubator at 37° C. overnight.
After washing the 96 well white plate with PBS (Phosphate-buffered saline), 90 μl of HAM F12 medium containing 0.1% fatty acid-free bovine serum albumin (BSA) and 10 μl of test compound were added, which was cultured in a CO2 gas incubator at 37° C. for 48 hours. After removing the medium, 40 μl of PIKKAGENE 7.5 (produced by Wako Pure Chemical Industries, Ltd.) was added. After stirring, the luciferase activity was determined using Lumistar (produced by BMG Labtechnologies GmbH, Germany).
A fold induction was calculated based on the luciferase activity of each test compound by taking the luciferase activity in the non-treatment group as 1. The values of the test compound concentration and the fold induction were analyzed using PRISM 2.01 (produced by GraphPad Software Inc. USA) to calculate the EC50 values, the effective concentration of a test compound for 50% of the maximum fold induction.
(Introduction of Human PPARγ- and RXRα-Expressing Plasmid and Reporter Plasmid into CHO-K1 Cell and Establishment of Expressed Cell)
After a CHO-K1 cell cultured in a 750 ml tissue culture flask (produced by Corning Costar Corporation, USA) containing HAM F12 medium (produced by NISSUI SEIYAKU) supplemented with 10% Fetal Bovine Serum (produced by Life Technologies, Inc., USA) was scraped by treating with 0.5 g/L trypsin-0.2 g/L EDTA (ethylenediaminetetraacetic acid) (produced by Life Technologies, Inc., USA), the cell was washed with PBS (phosphate-buffered saline) (produced by Life Technologies, Inc., USA), centrifuged (1000 rpm, 5 minutes), and then suspended in PBS. Subsequently, a DNA was introduced into the cell under the condition shown below using GENE PULSER (produced by Bio-Rad Laboratories, USA).
Namely, to a cuvette having a 0.4 cm gap, added were 8×10^6 cells and 10 μg of plasmid pVgRXR2-hPPAR γ obtained in Reference Example 3 and 10 μg of reporter plasmid pGL3-4ERPP-TK neo obtained in Reference Example 4, which was subjected to electroporation at the voltage of 0.25 kV under the capacitance of 960 μF. Subsequently, the cell was transferred into a HAM F12 medium containing 10% Fetal Bovine Serum and cultured for 24 hours and then the cell was scraped again and centrifuged, and then suspended in HAM F12 medium containing 10% Fetal Bovine Serum supplemented with 500 μg/ml of GENETICIN (produced by Life Technologies, Inc., USA) and 250 μg/ml of ZEOCIN (produced by Invitrogen, USA) and diluted to the density of 10^4 cells/ml upon inoculation to a 96-well plate (produced by Corning Costar Corporation, USA), which was cultured in a CO2 gas incubator at 37° C., whereby obtaining a GENETICIN- and ZEOCIN-resistant transformant.
Subsequently, after the transformant cell line thus obtained was cultured in a 24-well plate (produced by Corning Costar Corporation, USA), selected was a cell line in which the luciferase was expressed and induced, i.e., PPARγ:RXRα:4ERPP/CHO-K1 cell by addition of 10 μM pioglitazone hydrochloride.

SMILES	melting point [°C]	EC50 (PPARγ-RXRα heterodimer) [nM]
O=C(O)CCc1cn(Cc2ccc(OCc3csc(-c4cccs4)n3)cc2)cc1-c1ccccc1 [Example 40, 3-[4-phenyl-1-[4-[2-(2-thienyl)-4-thiazolylmethoxy]benzyl]-3-pyrrolyl]propionic acid]	106 to 107	57
O=C(O)CCc1cn(Cc2ccc(OCc3csc(-c4ccco4)n3)cc2)cc1-c1ccccc1 [Example 38, 3-[1-[4-[2-(2-furyl)-4-thiazolylmethoxy]benzyl]-4-phenyl-3-pyrrolyl]propionic acid]	114 to 115	38
O=C(O)CCc1cn(Cc2ccc(OCc3coc(-c4ccccc4)n3)cc2)cc1-c1ccccc1 [Example 44, 3-[4-phenyl-1-[4-(2-phenyl-4-oxazolylmethoxy]benzyl]-3-pyrrolyl]propionic acid]	139 to 140	13
Cc1oc(-c2ccccc2)nc1COc1ccc(Cn2cc(CCC(=O)O)c(-c3ccccc3)n2)cn1 [Example 283, 3-[1-[2-(5-methyl-2-phenyl-4-oxazolylmethoxy)-5-pyridylmethyl]-3-phenyl-1H-pyrazol-4-yl]propionic acid]		0.22

More lines, in order of falling EC50 (PPARγ-RXRα heterodimer), values ahead:

melting point [°C]	EC50 (PPARγ-RXRα heterodimer) [nM]	SMILES
131 to 132	320	O=C(O)CCc1cn(Cc2ccc(OCc3cccnc3)cc2)cc1-c1ccccc1 [Example 12, 3-[4-phenyl-1-[4-(3-pyridylmethoxy)benzyl]-3-pyrrolyl]propionic acid]
126 to 127	33	CCOc1nn(Cc2ccc(OCc3nc(-c4ccccc4)oc3C)nc2)cc1CC(=O)O [Example 262, 3-ethoxy-1-[6-(5-methyl-2-phenyl-4-oxazolylmethoxy)-3-pyridylmethyl]-1H-pyrazol-4-ylacetic acid]
111 to 112	9.7	O=C(O)CCc1cn(Cc2ccc(OCc3csc(-c4ccccc4)n3)cc2)cc1-c1ccccc1 [Example 30, 3-[4-phenyl-1-[4-(2-phenyl-4-thiazolylmethoxy)benzyl]-3-pyrrolyl]propionic acid]
117 to 118	1.5	Cc1oc(-c2cccs2)nc1COc1ccc(Cn2cc(CCC(=O)O)c(-c3ccccc3)c2)cc1 [Example 9, 3-[1-[4-[5-methyl-2-(2-thienyl)-4-oxazolylmethoxy]benzyl]-4-phenyl-3-pyrrolyl]propionic acid]
179 to 180	0.23	Cc1oc(-c2ccccc2)nc1COc1ccc(Cn2cc(CCC(=O)O)c(-c3ccccc3)n2)cc1 [Example 89, 3-[1-[4-(5-methyl-2-phenyl-4-oxazolylmethoxy)benzyl]-3-phenyl-1H-pyrazol-4-yl]propionic acid]
